The subject of series [1] is king salmons (Oncorhynchus tshawytscha). As to the kind of experiment: Cultivation of king salmon with carotenoid feed: fish weight and flesh color by spectrometer. It is filed as in vivo. The source says:
The flesh color of a landed salmon can be quantified with the L*a*b* color system by measuring the color using a spectrometer. L* represents the luminance, a* represents the chroma red, and b* represents chroma yellow. A higher value of a*/b* represents a color more reddish than orangish, and a lower value of a*/b* represents a color more orangish than reddish. […] 100 king salmons (Oncorhynchus tshawytscha) each weighing about 200 g were cultivated as a test division of being fed with the above-described fermented product, and another 100 king salmons each weighing about 200 g were cultivated as a test division of being fed with the above-described synthetic product. The salmons were fed in satiation in a marine fish pen for 3 months. After the 3 months of cultivating, 15 fish of each test division were sampled and weighed. […] The fish were immediately killed by cutting medulla. […] After the measurement, the fish flesh was frozen for preservation for 1 month. After being thawed, the fish flesh of the fish of each test division was analyzed in terms of the content of each carotenoid compound.

The subject of series [2] is silver salmons (Oncorhynchus kisutch). Briefly: Cultivation of silver salmon with carotenoid feed: fish weight and flesh color by spectrometer. It is filed as in vivo. The source says: The flesh color of a landed salmon can be quantified with the L*a*b* color system by measuring the color using a spectrometer. L* represents the luminance, a* represents the chroma red, and b* represents chroma yellow. A higher value of a*/b* represents a color more reddish than orangish, and a lower value of a*/b* represents a color more orangish than reddish. […] 300 silver salmons (Oncorhynchus kisutch) each weighing about 200 g were cultivated as a test division of being fed with the above-described fermented product, and another 300 silver salmons each weighing about 200 g were cultivated as a test division of being fed with the above-described synthetic product. The salmons were fed in satiation in a marine fish pen for 6 months. After the 6 months of cultivating, 10 fish of each test division were weighed. […] The fish were immediately killed by cutting medulla and frozen for preservation. After being thawed, the fish flesh was milled by a coffee mill, and a part thereof was put into a polyethylene bag to measure the color tone thereof by a spectrometer CM-508i (Minolta). […] From a part of the milled fish flesh, the carotenoid colorant was extracted, and analyzed in terms of the content of each carotenoid compound by HPLC.

Series [3] relates to rainbow trouts (Oncorhynchus mykiss). Briefly: Cultivation of rainbow trout with carotenoid feed: fish weight and flesh color by spectrometer. It is filed as in vivo. The source says:
The flesh color of a landed salmon can be quantified with the L*a*b* color system by measuring the color using a spectrometer. L* represents the luminance, a* represents the chroma red, and b* represents chroma yellow. A higher value of a*/b* represents a color more reddish than orangish, and a lower value of a*/b* represents a color more orangish than reddish. […] 50 rainbow trouts (Oncorhynchus mykiss) each weighing about 100 g were cultivated in a water tank as a test division of being fed with the above-described fermented product, and another 50 rainbow trouts each weighing about 100 g were cultivated in a water tank as a test division of being fed with the above-described synthetic product. The trouts of each test division were fed in satiation in fresh water for 3 months. After the 3 months of cultivating, 12 fish of each test division were weighed. […] The fish were immediately killed by cutting medulla. […] After the measurement, the fish flesh was frozen for preservation. After being thawed, the fish flesh of the 12 fish of each test division was analyzed in terms of the content of each carotenoid compound.

Series [4] deals with Atlantic salmons (Salmo salar). As to the kind of experiment: Cultivation of Atlantic salmon with carotenoid feed: fish weight and flesh color by spectrometer. It counts as in vivo. An excerpt:
The flesh color of a landed salmon can be quantified with the L*a*b* color system by measuring the color using a spectrometer. L* represents the luminance, a* represents the chroma red, and b* represents chroma yellow. A higher value of a*/b* represents a color more reddish than orangish, and a lower value of a*/b* represents a color more orangish than reddish. […] 400 Atlantic salmons (Salmo salar) each weighing about 300 g were cultivated as a test division of being fed with the above-described fermented product, and another 400 Atlantic salmons each weighing about 300 g were cultivated as a test division of being fed with the above-described synthetic product. The salmons were fed in satiation in a marine fish pen for 12 months. After the 12 months of cultivating, 20 fish of each test division were landed and weighed. […] The fish were immediately killed by cutting medulla, and the fish flesh was measured in terms of the color tone by a spectrometer. […] After the measurement, the fish flesh was frozen for preservation for 1 month. After being thawed, the fish flesh of the 20 fish of each test division was analyzed in terms of the content of each carotenoid compound.

Series [5] can be described thus: Carotenoid content in fish flesh of silver salmon by HPLC. It counts as in vivo, Oncorhynchus kisutch. Conditions: 6 months; for Ratio to astaxanthin: silver salmon fish flesh; for Content in fish flesh: silver salmon, average of 10 fish. On the procedure:
In the examples, the quantification of the carotenoid colorant was performed using high performance liquid chromatography (HPLC). Two columns of Wakosil-II 5 SIL-100 φ4.6×250 mm (produced by Wako Pure Chemical Industries, Ltd.) were connected to each other. An n-hexane:tetrahydrofuran:methanol (40:20:1) mixed solution was used as a mobile phase. A constant room temperature and a flow rate of 1.0 ml/min were used. The detection was performed at a wavelength of 470 nm. The feed or fish flesh was milled, and then the colorant was extracted with a tetrahydrofuran:methanol (20:1) mixed solution. The colorant was appropriately diluted with the mobile phase and analyzed by HPLC. 300 silver salmons (Oncorhynchus kisutch) each weighing about 200 g were cultivated as a test division of being fed with the above-described fermented product, and another 300 silver salmons each weighing about 200 g were cultivated as a test division of being fed with the above-described synthetic product. The salmons were fed in satiation in a marine fish pen for 6 months. After the 6 months of cultivating, 10 fish of each test division were weighed. […] The fish were immediately killed by cutting medulla and frozen for preservation. After being thawed, the fish flesh was milled by a coffee mill, and a part thereof was put into a polyethylene bag to measure the color tone thereof by a spectrometer CM-508i (Minolta). […] From a part of the milled fish flesh, the carotenoid colorant was extracted, and analyzed in terms of the content of each carotenoid compound by HPLC.

Series [6] is described as follows: Carotenoid content in fish flesh of rainbow trout by HPLC. To be noted: 3 months; for Ratio to astaxanthin: rainbow trout fish flesh; for Content in fish flesh: rainbow trout, average of 12 fish. It counts as in vivo, Oncorhynchus mykiss. On the procedure: In the examples, the quantification of the carotenoid colorant was performed using high performance liquid chromatography (HPLC). Two columns of Wakosil-II 5 SIL-100 φ4.6×250 mm (produced by Wako Pure Chemical Industries, Ltd.) were connected to each other. An n-hexane:tetrahydrofuran:methanol (40:20:1) mixed solution was used as a mobile phase. A constant room temperature and a flow rate of 1.0 ml/min were used. The detection was performed at a wavelength of 470 nm. The feed or fish flesh was milled, and then the colorant was extracted with a tetrahydrofuran:methanol (20:1) mixed solution. The colorant was appropriately diluted with the mobile phase and analyzed by HPLC. 50 rainbow trouts (Oncorhynchus mykiss) each weighing about 100 g were cultivated in a water tank as a test division of being fed with the above-described fermented product, and another 50 rainbow trouts each weighing about 100 g were cultivated in a water tank as a test division of being fed with the above-described synthetic product. The trouts of each test division were fed in satiation in fresh water for 3 months. After the 3 months of cultivating, 12 fish of each test division were weighed. […] The fish were immediately killed by cutting medulla. […] After the measurement, the fish flesh was frozen for preservation. After being thawed, the fish flesh of the 12 fish of each test division was analyzed in terms of the content of each carotenoid compound.

Series [7] can be described thus: Carotenoid content in fish flesh of king salmon by HPLC. It is filed as in vivo, Oncorhynchus tshawytscha. To be noted: 3 months; for Ratio to astaxanthin: king salmon fish flesh; for Content in fish flesh: king salmon, flesh frozen 1 month, average of 15 fish. On the procedure:
In the examples, the quantification of the carotenoid colorant was performed using high performance liquid chromatography (HPLC). Two columns of Wakosil-II 5 SIL-100 φ4.6×250 mm (produced by Wako Pure Chemical Industries, Ltd.) were connected to each other. An n-hexane:tetrahydrofuran:methanol (40:20:1) mixed solution was used as a mobile phase. A constant room temperature and a flow rate of 1.0 ml/min were used. The detection was performed at a wavelength of 470 nm. The feed or fish flesh was milled, and then the colorant was extracted with a tetrahydrofuran:methanol (20:1) mixed solution. The colorant was appropriately diluted with the mobile phase and analyzed by HPLC. 100 king salmons (Oncorhynchus tshawytscha) each weighing about 200 g were cultivated as a test division of being fed with the above-described fermented product, and another 100 king salmons each weighing about 200 g were cultivated as a test division of being fed with the above-described synthetic product. The salmons were fed in satiation in a marine fish pen for 3 months. After the 3 months of cultivating, 15 fish of each test division were sampled and weighed. […] The fish were immediately killed by cutting medulla. […] After the measurement, the fish flesh was frozen for preservation for 1 month. After being thawed, the fish flesh of the fish of each test division was analyzed in terms of the content of each carotenoid compound.

Series [8] can be described thus: Carotenoid content in fish flesh of Atlantic salmon by HPLC. It is filed as in vivo, Salmo salar. To be noted: 12 months; for Ratio to astaxanthin: Atlantic salmon fish flesh; for Content in fish flesh: Atlantic salmon, flesh frozen 1 month, average of 20 fish. As to the method:
In the examples, the quantification of the carotenoid colorant was performed using high performance liquid chromatography (HPLC). Two columns of Wakosil-II 5 SIL-100 φ4.6×250 mm (produced by Wako Pure Chemical Industries, Ltd.) were connected to each other. An n-hexane:tetrahydrofuran:methanol (40:20:1) mixed solution was used as a mobile phase. A constant room temperature and a flow rate of 1.0 ml/min were used. The detection was performed at a wavelength of 470 nm. The feed or fish flesh was milled, and then the colorant was extracted with a tetrahydrofuran:methanol (20:1) mixed solution. The colorant was appropriately diluted with the mobile phase and analyzed by HPLC. 400 Atlantic salmons (Salmo salar) each weighing about 300 g were cultivated as a test division of being fed with the above-described fermented product, and another 400 Atlantic salmons each weighing about 300 g were cultivated as a test division of being fed with the above-described synthetic product. The salmons were fed in satiation in a marine fish pen for 12 months. After the 12 months of cultivating, 20 fish of each test division were landed and weighed. […] The fish were immediately killed by cutting medulla, and the fish flesh was measured in terms of the color tone by a spectrometer. […] After the measurement, the fish flesh was frozen for preservation for 1 month. After being thawed, the fish flesh of the 20 fish of each test division was analyzed in terms of the content of each carotenoid compound.

The mark [9] stands for this setting: flesh color by spectrometer, 3 months, average of 15 fish.
Where [10] appears, read: milled thawed fish flesh, spectrometer CM-508i, 6 months, average of 10 fish.
The mark [11] stands for this setting: flesh color by spectrometer, 3 months, average of 12 fish.
Setting [12] is: flesh color tone by spectrometer, 12 months, average of 20 fish.

As for `CC1=C(/C=C/C(C)=C/C=C/C(C)=C/C=C/C=C(C)/C=C/C=C(C)/C=C/C2=C(C)C(=O)[C@@H](O)CC2(C)C)C(C)(C)C[C@H](O)C1=O` [Synthetic product, astaxanthin], the “Fish flesh color exhibited” value in series [1] (3 months of cultivating) is listed as “reddish orange color close to a red color”; in series [2] (6 months of cultivating), “unnatural red color”; in series [3] (3 months of cultivating), “reddish orange color close to a red color”; in series [4] (12 months of cultivating) it was “reddish orange color with a high level of chroma red”. Moreover, the “L* value (luminance)” value is given as 50.8 in series [1] (setting [9]), 55.6 in series [2] (setting [10]), 41.8 in series [3] (setting [11]) and 50.0 in series [4] (setting [12]). The “a* value (chroma red)” value in series [1] (setting [9]) is listed as 23.7; in series [2] (setting [10]), 26.0; in series [3] (setting [11]), 9.1; in series [4] (setting [12]) it was 26.2. Besides, the “a*/b*” value in series [1] (setting [9]) is reported as 0.93; in series [2] (milled thawed fish flesh, spectrometer, 6 months, average of 10 fish), 0.99; in series [3] (setting [11]) it was 0.66; in series [4] (setting [12]), 0.94. The “b* value (chroma yellow)” value in series [1] (setting [9]) was found to be 25.5; in series [2] (setting [10]), 26.2; in series [3] (setting [11]) it was 13.8; in series [4] (setting [12]), 27.9.
In the case of `CC1=C(/C=C/C(C)=C/C=C/C(C)=C/C=C/C=C(C)/C=C/C=C(C)/C=C/C2=C(C)CCCC2(C)C)C(C)(C)CCC1` [β-carotin], the Ratio to astaxanthin in series [5] (Fermented product division) is 0.2 or less %; in series [6] (Fermented product division), 0.6 or less %; in series [7] (Fermented product division), 0.5 or less %; in series [8] (Fermented product division) it was 0.5 or less %. In addition, the “Content in fish flesh” value in series [5] (Fermented product division), in series [5] (Synthetic product division), in series [6] (Fermented product division), in series [6] (Synthetic product division), in series [7] (Fermented product division) and in series [7] (Synthetic product division) was 0.02 or less mg/kg each time. Also, the “Content in fish flesh” value in series [8] (Fermented product division) and in series [8] (Synthetic product division) was 0.02 or less mg/kg throughout.
Regarding Asteroidenone, the Ratio to astaxanthin in series [5] (Fermented product division) was 1.9%; in series [6] (Fermented product division), 2.9%; in series [7] (Fermented product division) it was 2.2%; in series [8] (Fermented product division), 2.4%. The “Content in fish flesh” value in series [5] (Fermented product division) is on record as 0.2 mg/kg; in series [5] (Synthetic product division), 0.02 or less mg/kg; in series [6] (Fermented product division), 0.1 mg/kg; in series [6] (Synthetic product division), 0.02 or less mg/kg; in series [7] (Fermented product division), 0.1 mg/kg; in series [7] (Synthetic product division), 0.02 or less mg/kg. The “Content in fish flesh” value is 0.1 mg/kg in series [8] (Fermented product division) and 0.02 or less mg/kg in series [8] (Synthetic product division).

For the origin of these results see patent US8999664B2, “Method of improving salmon meat color” (JX Nippon Oil & Energy Corporation, priority 2006, dated 2015).
